Experimental data: patent US12570666B2, “Furoindazole derivatives” (Bayer Aktiengesellschaft, priority 2019, dated 2026)

Target: T1, human GPR84 receptor (Homo sapiens, UniProt Q9NQS5)
T1 construct: frozen aliquots prepared by acCELLerate; host or cells: CHO-K1
Experiment: cAMP HTRF assay for identification of cellular GPR84 antagonists
Type: cell-based
Conditions: CHO-K1 cells stably expressing human GPR84; Forskolin + agonist 6-OAU (EC80); average or median values
Procedure, shortened: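 Forskolin-stimulated CHO-K1 cells stably expressing human GPR84, agonist-suppressed cAMP measured by HTRF (665/620 ratio) after lysis. Compounds at 11 concentrations, 20 μM to 0.07 nM, duplicate; normalized to DMSO and no-agonist controls; IC50 by 4-parameter fit.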

T1 sequence (Q9NQS5 whole entry): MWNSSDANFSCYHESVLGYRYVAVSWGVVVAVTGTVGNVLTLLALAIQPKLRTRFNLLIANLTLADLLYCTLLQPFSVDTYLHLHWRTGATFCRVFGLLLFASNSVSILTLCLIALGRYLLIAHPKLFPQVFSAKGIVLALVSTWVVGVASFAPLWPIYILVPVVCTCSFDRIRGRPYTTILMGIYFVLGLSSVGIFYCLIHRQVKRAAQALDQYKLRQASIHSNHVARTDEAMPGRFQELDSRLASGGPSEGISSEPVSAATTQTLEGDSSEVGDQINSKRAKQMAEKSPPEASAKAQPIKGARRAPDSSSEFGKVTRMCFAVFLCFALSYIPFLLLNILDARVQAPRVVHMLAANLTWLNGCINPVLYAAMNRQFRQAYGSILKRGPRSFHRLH

IC50 | Compound
140 nM | Cc1c(C(=O)NC[C@@H]2CCCO2)oc2c1-c1nn(C[C@H]3CCOC3)cc1CC2 [Example 111, 8-methyl-N-[(2S)-tetrahydrofuran-2-ylmethyl]-2-[(3R)-tetrahydrofuran-3-ylmethyl]-4,5-dihydro-2H-furo[2,3-g]indazole-7-carboxamide]
61 nM | Cc1c(C(=O)NCC2CC(C)CO2)oc2c1-c1nn(Cc3ccccn3)cc1CC2 (mixture of isomers) [Example 175]
26 nM | O=C(NC[C@@H]1CCCO1)c1oc2c(c1C(F)(F)F)-c1nn(C[C@H]3COCCO3)cc1C1(CCC1)C2 [Example 271, 2′-[(2S)-1,4-dioxan-2-ylmethyl]-N-[(2S)-tetrahydrofuran-2-ylmethyl]-8′-(trifluormethyl)-2′,5′-dihydrospiro[cyclobutan-1,4′-furo[2,3-g]indazol]-7′-carboxamide]
28 nM | O=C(NC[C@@H]1COCCO1)c1oc2c(c1C(F)(F)F)-c1nn(Cc3ccccn3)cc1CC2 [Example 116, N-[(2R)-1,4-dioxan-2-ylmethyl]-2-(pyridin-2-ylmethyl)-8-(trifluoromethyl)-4,5-dihydro-2H-furo[2,3-g]indazole-7-carboxamide]
240 nM | Cc1c(C(=O)NC[C@@H]2CCCO2)oc2c1-c1nn(Cc3ncc(F)cc3Cl)cc1CC2 [Example 58, 2-[(3-chloro-5-fluoropyridin-2-yl)methyl]-8-methyl-N-[(2S)-tetrahydrofuran-2-ylmethyl]-4,5-dihydro-2H-furo[2,3-g]indazole-7-carboxamide]
94 nM | Cc1c(C(=O)NCC2CCC(C)O2)oc2c1-c1nn(C[C@H]3COCCO3)cc1C1(CC1)C2 (mixture of isomers) [Example 198]
1720 nM | Cc1c(C(=O)NCC2COC2)oc2c1-c1nn(Cc3ccccn3)cc1CC2 [Example 36, 8-methyl-N-(oxetan-3-ylmethyl)-2-(pyridin-2-ylmethyl)-4,5-dihydro-2H-furo[2,3-g]indazole-7-carboxamide]
89 nM | Cn1cnc(CNC(=O)c2oc3c(c2C(F)(F)F)-c2nn(C[C@H]4COCCO4)cc2CC3)c1 [Example 229, 2-[(2S)-1,4-Dioxan-2-ylmethyl]-N-[(1-methyl-1H-imidazol-4-yl)methyl]-8-(trifluormethyl)-4,5-dihydro-2H-furo[2,3-g]indazol-7-carboxamide]
120 nM | Cc1c(C(=O)NCc2ccn(C)n2)oc2c1-c1nn(Cc3ccccn3)cc1C1(CC1)C2 [Example 123, 8′-methyl-N-[(1-methyl-1H-pyrazol-3-yl)methyl]-2′-(pyridin-2-ylmethyl)-2′,5′-dihydrospiro[cyclopropane-1,4′-furo[2,3-g]indazole]-7′-carboxamide]
40 nM | CCc1ccc(Cn2cc3c(n2)-c2c(oc(C(=O)NC[C@@H]4COCCO4)c2C)CC3)cn1 [Example 187]
9 nM | Cc1ccc(Cn2cc3c(n2)-c2c(oc(C(=O)NC[C@@H]4CCCO4)c2C(F)(F)F)CC3C)nc1 (mixture of isomers) [Example 251, (4±)-4-methyl-2-[(5-methyl-2-pyridyl)methyl]-N-[[(2S)-tetrahydrofuran-2-yl]methyl]-8-(trifluoromethyl)-4,5-dihydrofuro[2,3-g]indazole-7-carboxamide]
136 nM | O=C(NCc1cocn1)c1oc2c(c1C(F)(F)F)-c1nn(C[C@H]3COCCO3)cc1CC2 [Example 239, 2-[(2S)-1,4-Dioxan-2-ylmethyl]-N-(1,3-oxazol-4-ylmethyl)-8-(trifluormethyl)-4,5-dihydro-2H-furo[2,3-g]indazol-7-carboxamide]
1160 nM | Cc1c(C(=O)NC[C@H]2CCCO2)oc2c1-c1nn(Cc3ccccn3)cc1CC2 [Example 3-1, 8-methyl-2-(pyridin-2-ylmethyl)-N-[(2R)-tetrahydrofuran-2-ylmethyl]-4,5-dihydro-2H-furo[2,3-g]indazole-7-carboxamide]
322 nM | O=C(NC[C@H]1COCCO1)c1oc2c(c1C(F)(F)F)-c1nn(C[C@H]3COCCO3)cc1CC2 [Example 300, N,2-bis{[(2S)-1,4-dioxan-2-yl]methyl}-8-(trifluoromethyl)-4,5-dihydro-2H-furo[2,3-g]indazole-7-carboxamide]
160 nM | Cc1c(C(=O)NCc2cc(C(F)(F)F)on2)oc2c1-c1nn(Cc3ccccn3)cc1CC2 [Example 25, 8-methyl-2-(pyridin-2-ylmethyl)-N-{[5-(trifluoromethyl)-1,2-oxazol-3-yl]methyl}-4,5-dihydro-2H-furo[2,3-g]indazole-7-carboxamide]
67 nM | Cn1ccc(CNC(=O)c2oc3c(c2C2CC2)-c2nn(Cc4ccccn4)cc2CC3)n1 [Example 121, 8-cyclopropyl-N-[(1-methyl-1H-pyrazol-3-yl)methyl]-2-(pyridin-2-ylmethyl)-4,5-dihydro-2H-furo[2,3-g]indazole-7-carboxamide]

IC50 | Compound
66 nM | Cc1c(C(=O)NC[C@@H]2CCCO2)oc2c1-c1nn(Cc3ccccn3)cc1C(C)C2 (mixture of isomers) [Example 247, (4+)-4,8-dimethyl-N-{[(2S)-oxolan-2-yl]methyl}-2-[(pyridin-2-yl)methyl]-4,5-dihydro-2H-furo[2,3-g]indazole-7-carboxamide]
940 nM | Cc1c(C(=O)NC[C@H]2COCCO2)oc2c1-c1nn(Cc3ccccn3)cc1C1(CCC1)C2 [Example 133]
210 nM | Cc1c(C(=O)NCC2CCC3(COC3)O2)oc2c1-c1nn(Cc3ccccn3)cc1CC2 (racemic) [Example 180]
24 nM | O=C(NCc1ncco1)c1oc2c(c1C(F)(F)F)-c1nn(Cc3ccccn3)cc1CC2 [Example 118, N-(1,3-oxazol-2-ylmethyl)-2-(pyridin-2-ylmethyl)-8-(trifluoromethyl)-4,5-dihydro-2H-furo[2,3-g]indazole-7-carboxamide]
21 nM | CC1COC(CNC(=O)c2oc3c(c2C(F)(F)F)-c2nn(C[C@H]4COCCO4)cc2[C@H](C)C3)C1 (single isomer, unassigned) [Example 313, 2,5-anhydro-1,3,4-trideoxy-1-{[(4R or 4S)-2-{[(2S)-1,4-dioxan-2-yl]methyl}-4-methyl-8-(trifluoromethyl)-4,5-dihydro-2H-furo[2,3-g]indazole-7-carbonyl]amino}-4-methylpentitol]
61 nM | O=C(NCc1ncco1)c1oc2c(c1C1CC1)-c1nn(Cc3ccccn3)cc1CC2 [Example 122, 8-cyclopropyl-N-(1,3-oxazol-2-ylmethyl)-2-(pyridin-2-ylmethyl)-4,5-dihydro-2H-furo[2,3-g]indazole-7-carboxamide]
145 nM | Cc1c(C(=O)NC[C@@H]2COCCO2)oc2c1-c1nn(C[C@H]3COCCO3)cc1C(C)C2 (mixture of isomers) [Example 248, (4±)-N-{[(2R)-1,4-dioxan-2-yl]methyl}-2-{[(2S)-1,4-dioxan-2-yl]methyl}-4,8-dimethyl-4,5-dihydro-2H-furo[2,3-g]indazole-7-carboxamide]
31 nM | Cc1c(C(=O)NC[C@@H]2CCCO2)oc2c1-c1nn(CC3(F)COC3)cc1CC2 [Example 95, 2-[(3-fluorooxetan-3-yl)methyl]-8-methyl-N-[(2S)-tetrahydrofuran-2-ylmethyl]-4,5-dihydro-2H-furo[2,3-g]indazole-7-carboxamide]
24 nM | Cc1cnc(CNC(=O)c2oc3c(c2C(F)(F)F)-c2nn(C[C@H]4COCCO4)cc2CC3)cn1 [Example 227, 2-[(2S)-1,4-Dioxan-2-ylmethyl]-N-[(5-methylpyrazin-2-yl)methyl]-8-(trifluormethyl)-4,5-dihydro-2H-furo[2,3-g]indazol-7-carboxamide]
180 nM | Cc1c(C(=O)NC[C@@H]2CCCO2)oc2c1-c1nn(CC3(F)CNC3)cc1CC2 [Example 157, 2-[(3-fluoroazetidin-3-yl)methyl]-8-methyl-N-[(2S)-tetrahydrofuran-2-ylmethyl]-4,5-dihydro-2H-furo[2,3-g]indazole-7-carboxamide]
11 nM | Cc1c(C(=O)NC[C@@H]2CCCO2)oc2c1-c1nn(CC3CN(C(=O)OC(C)(C)C)C3)cc1CC2 [Example 109, tert-butyl 3-[(8-methyl-7-{[(2S)-tetrahydrofuran-2-ylmethyl]carbamoyl}-4,5-dihydro-2H-furo[2,3-g]indazol-2-yl)methyl]azetidine-1-carboxylate]
760 nM | Cc1c(C(=O)NC[C@@H]2COCCO2)oc2c1-c1nn(C[C@H]3CN(C)CCO3)cc1CC2 [Example 102, N[(2R)-1,4-dioxan-2-ylmethyl]-8-methyl-2-{[(2R)-4-methylmorpholin-2-yl]methyl}-4,5-dihydro-2H-furo[2,3-g]indazole-7-carboxamide]
154 nM | CC1CCC(CNC(=O)c2oc3c(c2C(F)(F)F)-c2nn(CC4COCCO4)cc2CC3)O1 (single isomer, unassigned) [Example 224-2, 2-{[(2S)-1,4-dioxan-2-yl]methyl}-N-{[(2S or 2R,5S or 5R)-5-methyloxolan-2-yl]methyl}-8-(trifluoromethyl)-4,5-dihydro-2H-furo[2,3-g]indazole-7-carboxamide]
17500 nM | Cc1noc(C)c1CNC(=O)c1oc2c(c1C)-c1nn(Cc3ccccn3)cc1CC2 [Example 27, N-[(3,5-dimethyl-1,2-oxazol-4-yl)methyl]-8-methyl-2-(pyridin-2-ylmethyl)-4,5-dihydro-2H-furo[2,3-g]indazole-7-carboxamide]
185 nM | Cc1c(C(=O)NC[C@@H]2COCCO2)oc2c1-c1nn(C[C@H]3COCCO3)cc1[C@H](C(F)(F)F)C2 (single isomer, unassigned) [Example 265-1, (4R or 4S)-N-{[(2R)-1,4-dioxan-2-yl]methyl}-2-{[(2S)-1,4-dioxan-2-yl]methyl}-8-methyl-4-(trifluoromethyl)-4,5-dihydro-2H-furo[2,3-g]indazole-7-carboxamide]
670 nM | Cc1c(C(=O)Nc2ccn(C)n2)oc2c1-c1nn(Cc3ccccn3)cc1CC2 [Example 40, 8-methyl-N-(1-methyl-1H-pyrazol-3-yl)-2-(pyridin-2-ylmethyl)-4,5-dihydro-2H-furo[2,3-g]indazole-7-carboxamide]
